Paper PMC3257379 (Amino Acids, 2011)
Positions of bridges follow the written chain, without caps; N, C: chain ends. No end group written: not given here.

Key:
[1] = tested on: tumor-draining brachial LNs of 4T1 tumor-bearing BALB/C mice; assay: Ex vivo optical; assay type: in vivo, mouse; settings: day 21 after tumor inoculation; 0.8 nmol, 24 h post injection; no blocking; n = 3/group
[2] = tested on: MDA-MB-435 xenografts; settings: systemic LyP-1 peptide treatment of xenografted tumor mice; ref Laakkonen et al. 2004; cited from earlier work

Substance | Average signal of tumor-draining LNs [1] | Effect on tumor growth [2]
Cy5.5 | 25.6 ± 0.25 ×10^3 photon/cm^2/s | –
CGNKRTRGC (disulfide 1-9 (inferred)) [LyP-1] | – | inhibited tumor growth
